{"source": "ChEMBL document CHEMBL4196200", "about": "(J Med Chem, 2018)", "key": {"[1]": {"test_system": "Mus musculus", "assay": "(§1) Effect on social interaction in Oprm1+/+ mouse model of autism spectrum disorders assessed as time spent in nose contacts at 10 mg/kg, ip pre-treated before open-field test for 10 mins", "type": "ADME, organism-based", "conditions": "in vivo"}, "[2]": {"target": "T1, Vasopressin V1b receptor (Homo sapiens, UniProt P47901)", "T1 sequence (P47901 whole entry)": "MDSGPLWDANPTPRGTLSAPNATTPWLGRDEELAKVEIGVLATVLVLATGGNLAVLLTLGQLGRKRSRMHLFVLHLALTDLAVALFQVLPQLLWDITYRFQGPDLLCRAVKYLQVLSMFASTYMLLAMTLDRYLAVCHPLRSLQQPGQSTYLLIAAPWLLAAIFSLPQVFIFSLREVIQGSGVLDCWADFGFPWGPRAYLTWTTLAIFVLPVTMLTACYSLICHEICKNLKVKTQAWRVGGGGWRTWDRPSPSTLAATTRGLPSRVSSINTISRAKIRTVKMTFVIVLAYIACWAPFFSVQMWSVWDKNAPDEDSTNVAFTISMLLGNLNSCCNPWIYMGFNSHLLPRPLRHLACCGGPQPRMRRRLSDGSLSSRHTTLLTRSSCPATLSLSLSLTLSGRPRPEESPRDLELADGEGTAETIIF", "description": "Agonist activity at human V1b receptor expressed in HEK293FT cells assessed as stimulation of calcium release by Aequorin based assay"}, "[3]": {"target": "T2, Oxytocin receptor (Mus musculus) (UniProt P97926)", "T2 sequence (whole entry)": "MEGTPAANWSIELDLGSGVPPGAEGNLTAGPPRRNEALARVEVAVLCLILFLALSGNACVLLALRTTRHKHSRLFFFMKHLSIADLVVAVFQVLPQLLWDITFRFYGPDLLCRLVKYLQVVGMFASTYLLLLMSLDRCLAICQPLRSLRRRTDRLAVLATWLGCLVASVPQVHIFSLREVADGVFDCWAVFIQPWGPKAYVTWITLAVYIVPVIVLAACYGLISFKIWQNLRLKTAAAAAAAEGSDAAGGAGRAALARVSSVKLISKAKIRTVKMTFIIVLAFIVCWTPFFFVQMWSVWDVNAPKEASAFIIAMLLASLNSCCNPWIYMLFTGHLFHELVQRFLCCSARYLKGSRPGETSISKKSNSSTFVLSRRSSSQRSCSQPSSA", "assay": "Agonist activity at mouse OTR receptor expressed in HEK293FT cells assessed as stimulation of calcium release by Aequorin based assay relative to OT", "type": "functional, cell-based"}, "[4]": {"test_system": "Mus musculus", "assay": "Improvement in social interaction in Oprm1-/- mouse model of autism spectrum disorders assessed as restoration of number of nose contacts at 20 mg/kg, ip pre-treated before open-field test for 10 mins", "type": "functional, organism-based"}, "[5]": {"target": "T3, Vasopressin V2 receptor (Homo sapiens, UniProt P30518)", "T3 sequence (P30518 whole entry)": "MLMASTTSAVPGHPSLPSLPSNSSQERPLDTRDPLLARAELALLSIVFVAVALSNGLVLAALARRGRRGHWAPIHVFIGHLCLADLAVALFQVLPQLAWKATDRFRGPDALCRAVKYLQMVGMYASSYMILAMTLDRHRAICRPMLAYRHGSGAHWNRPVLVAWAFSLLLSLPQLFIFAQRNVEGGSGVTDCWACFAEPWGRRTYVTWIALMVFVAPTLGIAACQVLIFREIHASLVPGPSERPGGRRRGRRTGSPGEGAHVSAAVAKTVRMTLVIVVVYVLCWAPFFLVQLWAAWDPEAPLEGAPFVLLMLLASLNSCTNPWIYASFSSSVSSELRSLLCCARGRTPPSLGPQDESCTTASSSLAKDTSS", "assay": "Agonist activity at human V2 receptor expressed in HEK293FT cells assessed as stimulation of calcium release by Aequorin based assay relative to AVP", "type": "functional, cell-based"}, "[6]": {"test_system": "Mus musculus", "assay": "(§2) Effect on social interaction in Oprm1+/+ mouse model of autism spectrum disorders assessed as mean duration of nose contacts at 10 mg/kg, ip pre-treated before open-field test for 10 mins", "type": "ADME, organism-based", "conditions": "in vivo"}, "[7]": {"test_system": "Mus musculus", "assay": "Improvement in social interaction in Oprm1-/- mouse model of autism spectrum disorders assessed as restoration of time spent in nose contacts at 20 mg/kg, ip pre-treated before open-field test for 10 mins", "type": "functional, organism-based"}, "[8]": {"assay": "AUC in brain of CD1 mouse at 10 mg/kg, ip measured over 15 mins to 240 mins by UHPLC-MS/MS method", "type": "ADME, organism-based", "design": "dose 10 mg/kg, time upper 4 hr, time lower 0.25 hr, route intraperitoneal", "conditions": "in vivo"}, "[9]": {"target": "T4, Vasopressin V1a receptor (Homo sapiens, UniProt P37288)", "T4 sequence (P37288 whole entry)": "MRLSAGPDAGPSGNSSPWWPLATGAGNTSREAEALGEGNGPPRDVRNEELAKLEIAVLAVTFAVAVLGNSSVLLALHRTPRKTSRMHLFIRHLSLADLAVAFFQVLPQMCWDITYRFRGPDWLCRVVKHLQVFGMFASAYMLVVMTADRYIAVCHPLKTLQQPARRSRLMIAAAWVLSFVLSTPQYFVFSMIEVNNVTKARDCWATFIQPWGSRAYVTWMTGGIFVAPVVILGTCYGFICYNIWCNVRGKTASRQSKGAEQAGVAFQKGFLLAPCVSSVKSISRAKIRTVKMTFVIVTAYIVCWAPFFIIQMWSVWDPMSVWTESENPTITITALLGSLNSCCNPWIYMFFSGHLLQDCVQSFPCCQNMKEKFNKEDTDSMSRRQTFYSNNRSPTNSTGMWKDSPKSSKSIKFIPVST", "description": "Agonist activity at human V1a receptor expressed in HEK293FT cells incubated for 30 mins by beta-arrestin recruitment assay"}, "[10]": {"test_system": "Mus musculus", "assay": "Improvement in social interaction in Oprm1-/- mouse model of autism spectrum disorders assessed as restoration of number of nose contacts at 10 mg/kg, ip pre-treated before open-field test for 10 mins", "type": "functional, organism-based"}, "[11]": {"test_system": "Mus musculus", "assay": "Improvement in social interaction in Oprm1-/- mouse model of autism spectrum disorders assessed as suppression of grooming episodes occurring after social contact at 10 mg/kg, ip pre-treated before open-field test for 10 mins", "type": "functional, organism-based"}, "[12]": {"test_system": "Mus musculus", "assay": "Improvement in social interaction in Oprm1-/- mouse model of autism spectrum disorders assessed as restoration of number of following episodes at 10 mg/kg, ip pre-treated before open-field test for 10 mins", "type": "functional, organism-based"}, "[13]": {"test_system": "Mus musculus", "assay": "Effect on social interaction in Oprm1+/+ mouse model of autism spectrum disorders assessed as number of nose contacts at 10 mg/kg, ip pre-treated before open-field test for 10 mins", "type": "ADME, organism-based", "conditions": "in vivo"}, "[14]": {"test_system": "Mus musculus", "assay": "Effect on social interaction in Oprm1+/+ mouse model of autism spectrum disorders assessed as increase in number of following episodes at 10 mg/kg, ip pre-treated before open-field test for 10 mins", "type": "ADME, organism-based", "conditions": "in vivo"}, "[15]": {"target": "T3, Vasopressin V2 receptor", "assay": "Agonist activity at human V2 receptor expressed in HEK293FT cells incubated for 30 mins by beta-arrestin recruitment assay relative to AVP", "type": "functional, cell-based"}, "[16]": {"target": "T5, Oxytocin receptor (Homo sapiens, UniProt P30559)", "T5 sequence (P30559 whole entry)": "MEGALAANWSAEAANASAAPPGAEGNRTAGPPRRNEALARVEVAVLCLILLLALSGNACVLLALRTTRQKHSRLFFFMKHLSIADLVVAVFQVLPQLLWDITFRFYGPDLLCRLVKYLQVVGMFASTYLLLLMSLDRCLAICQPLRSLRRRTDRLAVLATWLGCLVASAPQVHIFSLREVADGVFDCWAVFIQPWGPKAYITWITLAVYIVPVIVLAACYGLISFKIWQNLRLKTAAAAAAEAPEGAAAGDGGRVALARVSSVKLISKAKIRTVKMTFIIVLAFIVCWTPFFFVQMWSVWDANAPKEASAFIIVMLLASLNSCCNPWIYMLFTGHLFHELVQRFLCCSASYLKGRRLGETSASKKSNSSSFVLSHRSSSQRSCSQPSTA", "assay": "Displacement of DY647 from SNAP-tagged OTR receptor (unknown origin) expressed in HEK293 cells by TR-FRET assay", "type": "cell-based"}, "[17]": {"target": "T5, Oxytocin receptor", "assay": "Agonist activity at human OTR receptor expressed in HEK293FT cells incubated for 30 mins by beta-arrestin recruitment assay", "type": "functional, cell-based"}, "[18]": {"test_system": "Mus musculus", "assay": "as §1", "type": "ADME, organism-based", "conditions": "in vivo", "remark": "listed apart in the source"}, "[19]": {"target": "T4, Vasopressin V1a receptor", "assay": "Antagonist activity at human V1A receptor expressed in HEK cells assessed as inhibition of AVP-induced intracellular calcium flux incubated for 45 mins by Indo1-AM dye based fluorescence assay relative to AVP", "type": "functional, cell-based"}, "[20]": {"test_system": "Mus musculus", "assay": "as §2", "type": "ADME, organism-based", "conditions": "in vivo", "remark": "listed apart in the source"}, "[21]": {"test_system": "Mus musculus", "assay": "Improvement in social interaction in Oprm1-/- mouse model of autism spectrum disorders assessed as suppression of grooming episodes occurring after social contact at 20 mg/kg, ip pre-treated before open-field test for 10 mins", "type": "functional, organism-based"}, "[22]": {"target": "T1, Vasopressin V1b receptor", "assay": "Antagonist activity at human V1b receptor expressed in HEK293FT cells assessed as inhibition of AVP-induced calcium release by Aequorin based assay", "type": "functional, cell-based"}, "[23]": {"target": "T1, Vasopressin V1b receptor", "assay": "Antagonist activity at human V1b receptor expressed in HEK293FT cells assessed as inhibition of AVP-induced response incubated for 30 mins by beta-arrestin recruitment assay", "type": "functional, cell-based"}}, "note": "The source made the active and inactive calls. The rule behind the calls is not given here.", "data": [{"molecule": "Cc1cc(C(=O)N2Cc3cnn(C)c3Nc3ccccc32)ccc1CNC(=O)N1CCC[C@H]1C(=S)N(C)C", "values": [{"measurement": "Activity", "setting": "[1]", "result": "Toxic"}, {"measurement": "EC50", "setting": "[2]", "result": "Not Active"}, {"measurement": "Emax", "setting": "[3]", "result": 96, "unit": "%"}, {"measurement": "Activity", "setting": "[4]", "result": "inactive"}, {"measurement": "Emax", "setting": "[5]", "result": 101, "unit": "%"}, {"measurement": "Activity", "setting": "[6]", "result": "Non-Toxic"}, {"measurement": "Activity", "setting": "[7]", "result": "inactive"}, {"measurement": "AUC", "setting": "[8]", "result": 399, "unit": "ng·min/g"}, {"measurement": "IC50", "setting": "[9]", "result": "Not Active"}, {"measurement": "Activity", "setting": "[10]", "result": "Active"}, {"measurement": "Activity", "setting": "[11]", "result": "Active"}, {"measurement": "Activity", "setting": "[12]", "result": "Active"}, {"measurement": "Activity", "setting": "[13]", "result": "Non-Toxic"}, {"measurement": "Activity", "setting": "[14]", "result": "Toxic"}, {"measurement": "Emax", "setting": "[15]", "result": 97, "unit": "%"}, {"measurement": "Ki", "setting": "[16]", "result": 226, "unit": "nM"}, {"measurement": "EC50", "setting": "[17]", "result": 62, "unit": "nM"}, {"measurement": "Activity", "setting": "[18]", "result": "Non-Toxic"}, {"measurement": "IC50", "setting": "[19]", "result": 100, "unit": "nM"}, {"measurement": "Activity", "setting": "[20]", "result": "Toxic"}, {"measurement": "Activity", "setting": "[21]", "result": "inactive"}, {"measurement": "IC50", "setting": "[22]", "result": "Not Active"}, {"measurement": "IC50", "setting": "[23]", "result": "Not Active"}]}]}
